According to PMC11741150, “Synthesis and In Vitro Antileishmanial Efficacy of Novel Ethylene Glycol Analogues of Benzothiadiazine‐1,1‐dioxide” (Chemistry & Biodiversity, 2024):
“Also recorded” adds a separate entry of the source.

Key:
[1] = test system: L. donovani strain 9515 intramacrophage amastigotes; experiment: Intramacrophage antileishmanial growth inhibition assay; type: cell-based; conditions: Leishmania donovani, read-out: Anti‐amastigote growth inhibition (%)
Protocol: (§1) A modified resazurin assay[47, 48] and the two Leishmania strains were also used to assess the efficacy of synthesised compounds against intramacrophage parasites.
(§2) Human monocytic leukemia (THP‐1) cells were cultured in RPMI 1640 medium with L‐glutamine (Sigma Aldrich) supplemented with, 1 % penicillin/streptomycin solution (Lonza), 10 % fetal bovine serum (FBS; Thermofisher Scientific) and 2 g/L sodium bicarbonate (Sigma Aldrich). The cells were maintained in a humidified environment at 37 °C and 5 % CO2.
(§3) For the intramacrophage assay, a 500 000 cells/mL THP‐1 cell suspension was prepared, 25 ng/mL phorbol 12‐myristate 13‐acetate (PMA) added and the suspension seeded in 96 well plates (Nunc, Thermofisher Scientific) at 200 μL/well. Cell‐free growth medium was included as the blank. The plates were incubated for 48 hours in a humidified environment at 37 °C and 5 % CO2 to encourage the differentiation of the suspended cells to adherent macrophages.
(§4) To eliminate non‐adherent cells after the PMA treatment, the plates were carefully washed once with warm PBS. Then, a premade promastigote suspension ([…]) was added. The suspension consisted of stationary phase promastigotes in THP‐1 cell growth medium, with a multiplicity of infection (MOI) of 30 : 1. Parasite‐free medium was also added to selected THP‐1 cell‐containing wells to serve as parasite blank. The plates were thoroughly rinsed four times with warm PBS to get rid of extracellular parasites after being cultured for 24 hours to encourage macrophage infection. The cells were then treated with 160 μL of growth medium and 40 μL of either solvent (parasite blank and negative control with parasites) or 40 μL of compound solutions. For a dual‐point activity screening, 10 μM and 2 mM of compound were prepared in separate plates. Amphothericin B (10 μM) served as the standard antileishmanial drug. The plates were incubated for 72 hours in a humidified environment at 37 °C and 5 % CO2.
(§5) For the plates treated with 10 μM of compound, any serum and extracellular promastigotes that remained were carefully removed from the wells by rinsing with warm PBS. The wells were then treated with 20 μL of 0.05 % sodium dodecyl sulphate (SDS; Sigma Aldrich) in PBS for 30 sec to lyse the macrophages. Lysis was terminated with the addition of 180 μL promastigote growth medium with 10 % FBS. For the resazurin assay, 10 μL of resazurin solution (0.025 % in PBS) was added to each well and the plates were further incubated at 37 °C in for 72 hours in the dark to measure amastigote recovery to proliferative promastigotes.
(§6) A Thermofisher Scientific's GO Multiscan plate reader was used to measure absorbance at 570 nm and 600 nm. SkanIt 4.0 Research Edition software was used to perform the data analysis for every biological replicate. Background absorbance (600 nm) was subtracted from the 570 nm absorbance data and the mean absorbance was computed.
(§7) For the activity screening, the following formula was used to determine growth inhibition percentage: Growthinhibition%=100-[(ΔAbssample-ΔAbsblank)/(ΔAbsnegcontrol-ΔAbsblank)X100]

[2] = test system: Vero cells; experiment: Cytotoxicity resazurin assay; type: cell-based; conditions: Chlorocebus sabaeus, 48 hours, ±standard deviation, maximum concentration 2 mM
Protocol: The cytotoxicity of the synthesised compounds was evaluated using the resazurin assay. The assay involves live cells converting oxidized blue resazurin dye to pink, highly fluorescent resorufin through irreversible enzymatic reduction.[44] This non‐toxic reagent is a useful instrument for determining drug toxicity and cell growth.
Dulbecco's modified Eagle's medium (DMEM) with high glucose (Separations) supplemented with 1 % L‐glutamine, non‐essential amino acids, and penicillin‐streptomycin (Sigma Aldrich), and 10 % fetal bovine serum (Thermofisher Scientific) was used to cultivate Vero cells. The cells were kept at 37 °C and 5 % CO2 in a humidified environment. For the assay, 96 well plates were prepared by pipetting 100 μL of cell suspension (60 000 cells/mL) per well and incubating the plates for 24 hours. The cells were then treated with seven two‐fold concentration dilutions of: (1) 1 μM emetine dihydrochloride (Sigma Aldrich) solution (positive control); (2) 2 mM experimental compound solutions. Cell‐free growth medium was included as a blank. The treated plates were incubated for 48 hours.
To initiate the resazurin assay, 50 μL of sterile‐filtered resazurin sodium salt (Sigma Aldrich) solution (0.01 % in phosphate‐buffered saline (PBS)) was added to the prepared plates and then incubated for 2 hours. A Thermofisher Scientific's GO Multiscan plate reader was used to measure the absorbance at 570 and 600 nm. SkanIt 4.0 Research Edition software was used to perform the data analysis for every biological replicate. After subtracting background absorbance (600 nm) from the 570 nm absorbance data, the mean absorbance was computed, and the percentage of viable cells was estimated using the formula below: Cellviability%=(ΔAbssample-ΔAbsblank)/(ΔAbsnegcontrol-ΔAbsblank)X100
GraphPad Prism 5 was used to calculate the IC50 and Z‐score for each compound's biological replicate. The mean IC50 of the biological replicates and standard deviation (SD) was calculated to determine the final IC50 of each compound.

[3] = test system: Leishmania donovani (strain 9515 (MHOM/IN/95/9515)) promastigotes; experiment: Antipromastigote resazurin assay; type: cell-based; conditions: for IC50 / inhibition at 10 µM: Leishmania donovani; for IC50: promastigotes, maximum concentration 2 mM, ±standard deviation, read-out: L. donovani 9515 antipromastigote IC50; for inhibition at 10 µM: L. donovani strain 9515 promastigotes, read-out: Antipromastigote growth inhibition (%)
Protocol: The antipromastigote activity of synthesised compounds was evaluated using a modified method of the resazurin assay[45, 46] against two Leishmania strains.
Leishmania donovani (strain 9515 (MHOM/IN/95/9515)) and L. major (strain NIH S (MHOM/SN/74/Seidman)) promastigotes were cultured in M199 with Hank's salts and 0.68 mM L‐glutamine (Sigma Aldrich) supplemented with 0.0005 % hemin, 0.0001 % biotin, 0.1 mM adenine (Sigma Aldrich), 10 % fetal bovine serum, 50 U/mL Penicillin/Streptomycin solution, 4.2 mM sodium bicarbonate and 25 mM Hepes buffer. The promastigotes were maintained at an adjusted pH of 7.3–7.4 growth medium at 26 °C. […] Amphothericin B (10 μM) served as the standard antileishmanial drug and parasite‐free growth medium was included as the blank. The plates were incubated for 48 hours at 26 °C in humidified environment.
Following the initial incubation, 50 μL of resazurin solution (0.01 % in PBS) was added to each well and the plates underwent further incubation at 26 °C for 24 hours in the dark. A Thermofisher Scientific's GO Multiscan plate reader was used to measure absorbance at 570 nm and 600 nm. SkanIt 4.0 Research Edition software was used to perform the data analysis for every biological replicate. Background absorbance (600 nm) was subtracted from the 570 nm absorbance data and the mean absorbance was computed. The cell viability and data analysis were performed as indicated in the cytotoxicity assay.

[4] = test system: L. major (strain NIH S (MHOM/SN/74/Seidman)) promastigotes; experiment: Antipromastigote resazurin assay; type: cell-based, Leishmania major; conditions: for IC50 / inhibition at 10 µM: Leishmania major; for IC50: promastigotes, maximum concentration 2 mM, ±standard deviation; for inhibition at 10 µM: L. major strain IR‐173 (as headed) promastigotes, read-out: Antipromastigote growth inhibition (%)
[5] = test system: L. major intramacrophage amastigotes; experiment: Intramacrophage antileishmanial growth inhibition assay; type: cell-based, Leishmania major; conditions: for inhibition at 10 µM: Leishmania major, L. major strain IR‐173 (as headed) intramacrophage amastigotes, read-out: Anti‐amastigote growth inhibition (%); for host cell and parasite death in L. major anti‐amastigote screening: 2 mM of compound, L. major only
Protocol: as §1, §2, §3, §4, §5
Any remaining extracellular promastigotes were afterwards carefully removed from the wells by rinsing with warm PBS. The wells were then treated with 50 μL of resazurin solution (0.01 % in PBS) and the plates were further incubated at 37 °C for 4 hours in the dark to assess host cell viability.
as §6, §7

Row | SMILES | IC50 [3] [µM] | IC50 [4] [µM] | inhibition at 10 µM [1] [%] | IC50 [2] [µM] | inhibition at 10 µM [3] [%] | inhibition at 10 µM [4] [%] | inhibition at 10 µM [5] [%] | SI1: Selectivity index=IC50 Vero/L. donovani 9515 antipromastigote IC50 [3] | SI2: Selectivity index=IC50 Vero/L. major antipromastigote IC50 [4] | host cell and parasite death in L. major anti‐amastigote screening [5]
1 | CCOCCOCCOCCN1C=Nc2ccccc2S1(=O)=O [Compound 8, 2‐{2‐[2‐(2‐Ethoxyethoxy)ethoxy]ethyl}‐2H‐benzo[e][1,2,4]thiadiazine‐1,1‐dioxide] | 809 ± 20.2 | 909 ± 124 | 0 | 922 ± 93.9 | 3 | 0 | 0 | – | – | –
2 | CC[C@H]1CN2CCc3cc(OC)c(OC)cc3[C@@H]2C[C@@H]1C[C@H]1NCCc2cc(OC)c(OC)cc21 [Em, emetine, reference compound] | – | – | – | 0.08 ± 0.01 | – | – | – | – | – | –
3 | COCCOCCOCCN1C=Nc2ccccc2S1(=O)=O [Compound 5, 2‐{2‐[2‐(2‐Methoxyethoxy)ethoxy]ethyl}‐2H‐benzo[e][1,2,4]thiadiazine‐1,1‐dioxide] | 830 ± 10.5 | – | 0 | 999 ± 16.8 | 5 | 0 | 0 | 1.20 | 0.89 | both host cell and parasite death
4 | COCCOCCN1C=Nc2ccccc2S1(=O)=O [Compound 4, 2‐[2‐(2‐Methoxyethoxy)ethyl]‐2H‐benzo[e][1,2,4]thiadiazine‐1,1‐dioxide] | 701.6 ± 4.17 | 919 ± 22.3 | 0 | 988 ± 10.6 | 0 | 0 | 0 | – | – | –
5 | CCOCCOCCN1C=Nc2ccccc2S1(=O)=O [Compound 7, 2‐[2‐(2‐Ethoxyethoxy)ethyl]‐2H‐benzo[e][1,2,4]thiadiazine‐1,1‐dioxide] | 426 ± 34.7 | 491 ± 28.6 | 0 | 727 ± 61.7 | 0 | 0 | 0 | 1.71 | 1.48 | both host cell and parasite death; also recorded: killed both parasite and host cell

Further lines, with some results ahead:

Row | IC50 [3] [µM] | IC50 [4] [µM] | SMILES | inhibition at 10 µM [1] [%] | IC50 [2] [µM] | inhibition at 10 µM [3] [%] | inhibition at 10 µM [4] [%] | inhibition at 10 µM [5] [%] | SI1: Selectivity index=IC50 Vero/L. donovani 9515 antipromastigote IC50 [3] | SI2: Selectivity index=IC50 Vero/L. major antipromastigote IC50 [4] | host cell and parasite death in L. major anti‐amastigote screening [5]
6 | 0.02 | – | C[C@@H]1[C@H](O)[C@@H](C)/C=C/C=C/C=C/C=C/C=C/C=C/C=C/[C@H](O[C@@H]2O[C@H](C)[C@@H](O)[C@H](N)[C@@H]2O)C[C@@H]2O[C@](O)(C[C@@H](O)C[C@@H](O)[C@H](O)CC[C@@H](O)C[C@@H](O)CC(=O)O[C@H]1C)C[C@H](O)[C@H]2C(=O)O [AmB, Amphotericin B, reference compound] | 100 | 57.8 ± 3.22 | 100 | 100 | 100 | – | – | –
7 | 333 ± 45.1 | 586 ± 47 | CCOCCN1C=Nc2ccccc2S1(=O)=O [Compound 6, 2‐(2‐Ethoxyethyl)‐2H‐benzo[e][1,2,4]thiadiazine‐1,1‐dioxide] | 0 | 470 ± 225 | 2 | 0 | 0 | – | – | –
8 | 411 ± 27.9 | 783 ± 408 | O=[N+]([O-])c1ccc(OCCN2C=Nc3ccccc3S2(=O)=O)cc1 [Compound 12, 2‐[2‐(4‐Nitrophenoxy)ethyl]‐2H‐benzo[e][1,2,4]thiadiazine‐1,1‐dioxide] | 0 | 667 ± 58 | 9 | 0 | 0 | 1.62 | 0.85 | killed both parasite and host cell
9 | 238 ± 14.5 | 185 ± 22.1 | C#CCN1C=Nc2ccccc2S1(=O)=O [Compound 14, 2‐(Prop‐2‐yn‐1‐yl)‐2H‐benzo[e][1,2,4]thiadiazine‐1,1‐dioxide] | 0 | 535 ± 21.8 | 1 | 23 | 0 | 2.25 | 2.89 | killed both parasite and host cell
10 | 360 ± 12.5 | 455 ± 9.55 | C=CCOCCN1C=Nc2ccccc2S1(=O)=O [Compound 13, 2‐[2‐(Allyloxy)ethyl]‐2H‐benzo[e][1,2,4]thiadiazine‐1,1‐dioxide] | 0 | 531 ± 15.7 | 15 | 0 | 0 | – | 1.17 | killed both parasite and host cell
11 | 290 ± 21.4 | 300 ± 3.68 | O=S1(=O)c2ccccc2N=CN1CCOc1ccc(Cl)cc1 [Compound 11, 2‐[2‐(4‐Chlorophenoxy)ethyl]‐2H‐benzo[e][1,2,4]thiadiazine‐1,1‐dioxide] | 0 | 747 ± 188 | 3 | 0 | 0 | 2.57 | 2.49 | killed both parasite and host cell
